Source: US20200055839A1 (priority 2017, published 2020)

Test system: NL-RLuc virus
Assay: Inhibition of HIV replication (NL-RLuc virus, luciferase readout in MT-2 cells)
Format: cell-based
Conditions: Human immunodeficiency virus 1, MT2, 120 h, MT-2 cells infected with NL-RLuc virus, 5 days of incubation, 10% FBS, at least 2 experiments
Procedure, shortened: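 EC50 derived via median effect equation from at least 2 experiments, using luciferase expression as virus-growth readout. Replication-competent NL-RLuc reporter virus (nef partly replaced by Renilla luciferase) infected MT-2 cells with serial compound dilutions; 5-day incubation in RPMI 1640 plus 10% FBS.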

**Q.** With `Cc1nc(CN2CCC3(CCC3)CC2)c(-c2ccccc2)c(N2CCC(C)(C)CC2)c1[C@H](OC(C)(C)C)C(=O)O` [Example 190, (2S)-2-[6-({7-Azaspiro[3.5]nonan-7-yl}methyl)-4-(4,4-dimethylpiperidin-1-yl)-2-methyl-5-phenylpyridin-3-yl]-2-(tert-butoxy)acetic acid] as the molecule, how does the EC50 read?
**A.** 3 nM

**Q.** With `Cc1nc(N)c(-c2ccc(OCCc3ccc(F)cc3)c(F)c2F)c(N2CCC(C)(C)CC2)c1[C@H](OC(C)(C)C)C(=O)O` (single isomer, unassigned) [Example 70] as the molecule, how does the EC50 read?
**A.** 2 nM

**Q.** Which EC50 does the source give for `Cc1nc(OCCc2ccc(F)cc2)ccc1-c1cnc(C)c([C@H](OC(C)(C)C)C(=O)O)c1N1CCC(C)(C)CC1` [Example 260, (S)-2-(tert-Butoxy)-2-(4-(4,4-dimethylpiperidin-1-yl)-6′-(4-fluorophenethoxy)-2′,6-dimethyl-[3, 3′-bipyridin]-5-yl)acetic acid] here?
**A.** 11 nM

**Q.** For `Cc1nc(NCCN2CCOCC2)c(-c2ccc(OCCc3ccc(F)cc3)cc2)c(N2CCC(C)(C)CC2)c1[C@H](OC(C)(C)C)C(=O)O` [Example 26, (S)-2-(tert-Butoxy)-2-(4-(4,4-dimethylpiperidin-1-yl)-5-(4-(4-fluorophenethoxy)phenyl)-2-methyl-6-((2-morpholinoethyl)amino)pyridin-3-yl)acetic acid], which EC50 is on record?
**A.** 0.5 nM

**Q.** How did the EC50 turn out when `Cc1ccc(COc2ccc(-c3cnc(C)c([C@H](OC(C)(C)C)C(=O)O)c3N3CCC(C)(C)CC3)nc2)cc1` [Example 342, (2S)-2-(tert-butoxy)-2-[4′-(4,4-dimethylpiperidin-1-yl)-6′-methyl-5-[(4-methylphenyl)methoxy]-[2,3′-bipyridine]-5′-yl]acetic acid] was run?
**A.** 2 nM

**Q.** Which EC50 does the source give for `Cc1ncc(-c2cnc(O[C@@H](C)C(C)C)c(F)c2)c(N2CCC(C)(C)CC2)c1[C@H](OC(C)(C)C)C(=O)O` [Example 370, (2S)-2-(tert-butoxy)-2-[4-(4,4-dimethylpiperidin-1-yl)-5′-fluoro-6-methyl-6′-{[(2S)-3-methylbutan-2-yl]oxy}-[3,3′-bipyridine]-5-yl]acetic acid] here?
**A.** 1 nM

**Q.** How did the EC50 turn out when `Cc1ncc(-c2cc(C(F)(F)F)c(OCCc3ccc(F)cc3)cn2)c(N2CCC(C)(C)CC2)c1[C@H](OC(C)(C)C)C(=O)O` [Example 244, (S)-2-(tert-Butoxy)-2-(4′-(4,4-dimethylpiperidin-1-yl)-5-(4-fluorophenethoxy)-6′-methyl-4-(trifluoromethyl)-[2, 3′-bipyridin]-5′-yl)acetic acid] was run?
**A.** 3 nM

**Q.** How did the EC50 turn out when `COc1ccc(-c2cnc(C)c([C@H](OC(C)(C)C)C(=O)O)c2N2CCC(C)(C)CC2)nn1` [Example 15, (S)-2-(tert-Butoxy)-2-(4-(4,4-dimethylpiperidin-1-yl)-5-(6-methoxypyridazin-3-yl)-2-methylpyridin-3-yl)acetic acid] was run?
**A.** 16 nM

**Q.** `CCCCC(F)(F)c1ccc(-c2cnc(C)c([C@H](OC(C)(C)C)C(=O)O)c2N2CCC(C)(C)CC2)nc1` [Example 276, (S)-2-(tert-Butoxy)-2-(5-(1,1-difluoropentyl)-4′-(4,4-dimethylpiperidin-1-yl)-6′-methyl-[2, 3′-bipyridin]-5′-yl)acetic acid] was tested. Which EC50 did it give?
**A.** 14 nM

**Q.** For `Cc1ncc(-c2ccc(O[C@@H](C)c3ccccc3)cn2)c(N2CCC(C)(C)CC2)c1[C@H](OC(C)(C)C)C(=O)O` [Example 349, (2S)-2-(tert-butoxy)-2-[4′-(4,4-dimethylpiperidin-1-yl)-6′-methyl-5-[(1S)-1-phenylethoxy]-[2,3′-bipyridine]-5′-yl]acetic acid], which EC50 is on record?
**A.** 1 nM

**Q.** `Cc1nc(-n2cncc2C)c(-c2ccc(OCCc3ccc(F)cc3)cc2)c(N2CCC(C)(C)CC2)c1[C@H](OC(C)(C)C)C(=O)O` (single isomer, unassigned) [Example 55] was tested. Which EC50 did it give?
**A.** 3 nM

**Q.** With `CCCCCCCOc1ccc(-c2cnc(C)c([C@H](OC(C)(C)C)C(=O)O)c2N2CCC(C)(C)CC2)nc1` [Example 326, (2S)-2-(tert-butoxy)-2-[4′-(4,4-dimethylpiperidin-1-yl)-5-(heptyloxy)-6′-methyl-[2,3′-bipyridine]-5′-yl]acetic acid] as the molecule, how does the EC50 read?
**A.** 3 nM

**Q.** `Cc1ncc(-c2ccc(OCCC(C)(C)C)cn2)c(N2CCC(C)(C)CC2)c1[C@H](OC(C)(C)C)C(=O)O` [Example 316, (2S)-2-(tert-butoxy)-2-[5-(3,3-dimethylbutoxy)-4′-(4,4-dimethylpiperidin-1-yl)-6′-methyl-[2,3′-bipyridine]-5′-yl]acetic acid] was tested. Which EC50 did it give?
**A.** 2 nM

**Q.** For `CCCCCOc1ncc(-c2cnc(C)c([C@H](OC(C)(C)C)C(=O)O)c2N2CCC(C)(C)CC2)cc1F` [Example 407, (2S)-2-(tert-butoxy)-2-[4-(4,4-dimethylpiperidin-1-yl)-5′-fluoro-6-methyl-6′-(pentyloxy)-[3,3′-bipyridine]-5-yl]acetic acid], which EC50 is on record?
**A.** 4 nM

**Q.** How did the EC50 turn out when `Cc1ccccc1-c1cnc(C)c([C@H](OC(C)(C)C)C(=O)O)c1N1CCC(C)(C)CC1` [Example 137, (2S)-2-(tert-Butoxy)-2-[4-(4,4-dimethylpiperidin-1-yl)-2-methyl-5-(2-methylphenyl)pyridin-3-yl]acetic acid] was run?
**A.** 53 nM

**Q.** How did the EC50 turn out when `Cc1ccc(CCOc2ncc(-c3cnc(C)c([C@H](OC(C)(C)C)C(=O)O)c3N3CCC(C)(C)CC3)cc2F)cc1` [Example 405, (2S)-2-(tert-butoxy)-2-[4-(4,4-dimethylpiperidin-1-yl)-5′-fluoro-6-methyl-6′-[2-(4-methylphenyl)ethoxy]-[3,3′-bipyridine]-5-yl]acetic acid] was run?
**A.** 4 nM

**Q.** Which EC50 does the source give for `Cc1ncc(-c2ccccc2-c2ccccc2)c(N2CCC(C)(C)CC2)c1[C@H](OC(C)(C)C)C(=O)O` [Example 138, (2S)-2-(5-{[1,1′-Biphenyl]-2-yl}-4-(4,4-dimethylpiperidin-1-yl)-2-methylpyridin-3-yl)-2-(tert-butoxy)acetic acid] here?
**A.** 71 nM

**Q.** For `CC1(C)CCN(c2c(-c3ccc(OCCc4ccc(F)cc4)cc3)cnc(CF)c2[C@H](OC(C)(C)C)C(=O)O)CC1` [Example 7, (S)-2-(tert-Butoxy)-2-(4-(4,4-dimethylpiperidin-1-yl)-2-(fluoromethyl)-5-(4-(4-fluorophenethoxy)phenyl)pyridin-3-yl)acetic acid], which EC50 is on record?
**A.** 2 nM

**Q.** For `Cc1ncc(-c2ccc(OCC(C)C)c(C(F)(F)F)n2)c(N2CCC(C)(C)CC2)c1[C@H](OC(C)(C)C)C(=O)O` [Example 275, (S)-2-(tert-Butoxy)-2-(4′-(4,4-dimethylpiperidin-1-yl)-5-isobutoxy-6′-methyl-6-(trifluoromethyl)-[2, 3′-bipyridin]-5′-yl)acetic acid], which EC50 is on record?
**A.** 8 nM

**Q.** How did the EC50 turn out when `COc1ccc(CCOc2ncc(-c3cnc(C)c([C@H](OC(C)(C)C)C(=O)O)c3N3CCC(C)(C)CC3)cc2F)cc1C` [Example 391, (2S)-2-(tert-butoxy)-2-[4-(4,4-dimethylpiperidin-1-yl)-5′-fluoro-6′-[2-(4-methoxy-3-methylphenyl)ethoxy]-6-methyl-[3,3′-bipyridine]-5-yl]acetic acid] was run?
**A.** 4 nM

**Q.** `Cc1ncc(-c2cc(F)c(OCCc3ccc(F)cc3)cc2F)c(N2CCC(C)(C)CC2)c1[C@H](OC(C)(C)C)C(=O)O` [Example 125, (2S)-2-(tert-Butoxy)-2-(5-{2,5-difluoro-4-[2-(4-fluorophenyl)ethoxy]phenyl}-4-(4,4-dimethylpiperidin-1-yl)-2-methylpyridin-3-yl)acetic acid] was tested. Which EC50 did it give?
**A.** 3 nM

**Q.** For `COc1nc(OCC(C)C)ccc1-c1cnc(C)c([C@H](OC(C)(C)C)C(=O)O)c1N1CCC(C)(C)CC1` [Example 413, (S)-2-(tert-Butoxy)-2-(4-(4,4-dimethylpiperidin-1-yl)-6′-isobutoxy-2′-methoxy-6-methyl-[3,3′-bipyridin]-5-yl)acetic acid], which EC50 is on record?
**A.** 16 nM

**Q.** Which EC50 does the source give for `COc1ccc(CCOc2ccc(-c3cnc(C)c([C@H](OC(C)(C)C)C(=O)O)c3N3CCC(C)(C)CC3)nc2)cc1` [Example 293, (2S)-2-(tert-butoxy)-2-[4′-(4,4-dimethylpiperidin-1-yl)-5-[2-(4-methoxyphenyl)ethoxy]-6′-methyl-[2,3′-bipyridine]-5′-yl]acetic acid] here?
**A.** 1 nM

**Q.** `Cc1nc(CN2CCC3(CCC3)CC2)c(-c2ccc(F)c(F)c2)c(N2CCC(C)(C)CC2)c1[C@H](OC(C)(C)C)C(=O)O` [Example 195, (2S)-2-[6-({7-Azaspiro[3.5]nonan-7-yl}methyl)-5-(3,4-difluorophenyl)-4-(4,4-dimethylpiperidin-1-yl)-2-methylpyridin-3-yl]-2-(tert-butoxy)acetic acid] was tested. Which EC50 did it give?
**A.** 1 nM

**Q.** With `COc1ccc(-c2cnc(C)c([C@H](OC(C)(C)C)C(=O)O)c2N2CCC(C)(C)CC2)nc1` [Example 229, (S)-2-(tert-Butoxy)-2-(4′-(4,4-dimethylpiperidin-1-yl)-5-methoxy-6′-methyl-[2, 3′-bipyridin]-5′-yl)acetic acid] as the molecule, how does the EC50 read?
**A.** 13 nM

**Q.** `Cc1ncc(-c2cnc(OCCc3ccc(Cl)cc3)c(F)c2)c(N2CCC(C)(C)CC2)c1[C@H](OC(C)(C)C)C(=O)O` [Example 395, (2S)-2-(tert-butoxy)-2-{6′-[2-(4-chlorophenyl)ethoxy]-4-(4,4-dimethylpiperidin-1-yl)-5′-fluoro-6-methyl-[3,3′-bipyridine]-5-yl}acetic acid] was tested. Which EC50 did it give?
**A.** 2 nM

**Q.** With `Cc1ncc(-c2ccc(C(F)(F)CC(C)C)cn2)c(N2CCC(C)(C)CC2)c1[C@H](OC(C)(C)C)C(=O)O` [Example 274, (S)-2-(tert-Butoxy)-2-(5-(1,1-difluoro-3-methylbutyl)-4′-(4,4-dimethylpiperidin-1-yl)-6′-methyl-[2, 3′-bipyridin]-5′-yl)acetic acid] as the molecule, how does the EC50 read?
**A.** 16 nM

**Q.** Which EC50 does the source give for `Cc1ncc(-c2ccc(OCc3cccc(F)c3)cn2)c(N2CCC(C)(C)CC2)c1[C@H](OC(C)(C)C)C(=O)O` [Example 343, (2S)-2-(tert-butoxy)-2-[4′-(4,4-dimethylpiperidin-1-yl)-5-[(3-fluorophenyl)methoxy]-6′-methyl-[2,3′-bipyridine]-5′-yl]acetic acid] here?
**A.** 2 nM

**Q.** With `Cc1cn(-c2nc(C)c([C@H](OC(C)(C)C)C(=O)O)c(N3CCC(C)(C)CC3)c2-c2ccc(OCCc3ccc(F)cc3)cc2)c(C)n1` [Example 53, (S)-2-(tert-Butoxy)-2-(6-(2,4-dimethyl-1H-imidazol-1-yl)-4-(4,4-dimethylpiperidin-1-yl)-5-(4-(4-fluorophenethoxy)phenyl)-2-methylpyridin-3-yl)acetic acid] as the molecule, how does the EC50 read?
**A.** 3 nM
